Data taken from publication PMC9914026, “Identification of a Novel ACE Inhibitory Hexapeptide from Camellia Seed Cake and Evaluation of Its Stability” (Foods, 2023).
Peptide text beside a SMILES is read from it.

Key:
[1] = molecular target: T1, Angiotensin I-converting enzyme (ACE) from rabbit lungs (Oryctolagus cuniculus, UniProt P12822); test: Stability after in vitro treatment with digestive enzymes (pepsin, trypsin); format: in vitro ADME; conditions: 0.4 mg/mL, 2 h, read-out ACE inhibition rate, n = 3
T1 construct: Angiotensin I-converting enzyme (ACE) from rabbit lungs (0.1 U); purchased Sigma-Aldrich (St. Louis, MO, USA); host or cells: rabbit lung tissue
T1 sequence (P12822 34-1310): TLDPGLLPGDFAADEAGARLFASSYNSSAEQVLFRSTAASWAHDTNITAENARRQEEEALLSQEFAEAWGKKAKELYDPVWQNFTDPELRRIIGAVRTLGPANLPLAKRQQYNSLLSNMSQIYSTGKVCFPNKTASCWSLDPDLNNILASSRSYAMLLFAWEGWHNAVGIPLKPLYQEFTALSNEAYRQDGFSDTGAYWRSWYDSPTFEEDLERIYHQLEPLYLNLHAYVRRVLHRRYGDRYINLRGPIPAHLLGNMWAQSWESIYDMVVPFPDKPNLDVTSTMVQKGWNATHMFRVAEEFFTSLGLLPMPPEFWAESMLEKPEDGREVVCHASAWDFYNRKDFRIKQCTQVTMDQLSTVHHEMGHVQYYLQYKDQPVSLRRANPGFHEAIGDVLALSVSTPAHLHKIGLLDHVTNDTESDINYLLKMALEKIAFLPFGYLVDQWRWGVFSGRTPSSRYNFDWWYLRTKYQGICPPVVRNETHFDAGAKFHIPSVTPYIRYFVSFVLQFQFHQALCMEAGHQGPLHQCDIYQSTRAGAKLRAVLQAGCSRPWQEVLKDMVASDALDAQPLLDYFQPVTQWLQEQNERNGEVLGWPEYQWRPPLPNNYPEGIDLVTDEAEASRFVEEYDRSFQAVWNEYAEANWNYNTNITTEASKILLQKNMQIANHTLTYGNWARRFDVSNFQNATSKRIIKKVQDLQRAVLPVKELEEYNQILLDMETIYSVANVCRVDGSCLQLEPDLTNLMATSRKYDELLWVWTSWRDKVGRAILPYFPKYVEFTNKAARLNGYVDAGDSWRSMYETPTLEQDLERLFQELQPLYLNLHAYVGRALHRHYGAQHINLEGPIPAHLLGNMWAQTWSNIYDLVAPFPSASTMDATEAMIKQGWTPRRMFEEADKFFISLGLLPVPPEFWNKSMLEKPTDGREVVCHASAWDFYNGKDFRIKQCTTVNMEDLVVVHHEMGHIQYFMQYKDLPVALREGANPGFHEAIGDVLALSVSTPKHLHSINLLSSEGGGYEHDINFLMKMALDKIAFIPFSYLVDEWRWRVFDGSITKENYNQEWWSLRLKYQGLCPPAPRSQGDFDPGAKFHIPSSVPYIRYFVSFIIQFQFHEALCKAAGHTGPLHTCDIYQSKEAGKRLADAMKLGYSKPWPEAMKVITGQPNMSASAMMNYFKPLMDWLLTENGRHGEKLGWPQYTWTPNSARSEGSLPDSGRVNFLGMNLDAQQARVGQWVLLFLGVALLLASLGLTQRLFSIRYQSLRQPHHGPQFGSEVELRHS
Description: (§1) The ACE inhibition rate was determined using High-Performance Liquid Chromatography (HPLC). In summary, 60 μL of HHL (2.5 mM) and 20 μL of samples were mixed and incubated at 37 °C for 5 min before 40 μL of ACE (0.05 U/mL) was added. The mixture was incubated at 37 °C for 1 h. Finally, the reaction was terminated by adding 120 μL of HCl solution (1 mol/L). The content of HA in the reaction system was detected by a PITC pre-column derivatization HPLC (Shimadzu LC-20AT) with a column C18 Hypersil ODS2 (4.6 mm×250 mm, 5 μm) at 228 nm. Isocratic elution was processed with the acetonitrile-water (volume ratio 1:3, each containing 0.1% TFA) solution at a constant flow rate of 1 mL/min. The ACE inhibition rate (%) was calculated based on the following formula:ACE inhibition rate (%) = [(A0 − A1) / A0] × 100%(4) where A0 and A1 equal the HA peak areas of the blank control and sample, respectively.
The stability of VVVPQN after in vitro treatment with digestive enzymes was carried out by the method of Chai with some modifications. Briefly, in a water bath at 37 °C, VVVPQN (0.4 mg/mL) was first digested with 2% (w/w) pepsin at pH 2.0 for 2 h. The pH was then adjusted to 7.0 before trypsin was added at a 1:50 enzyme to substrate ratio. […] The stability of VVVPQN was evaluated by comparing the ACE inhibition rate before and after the digestion.

[2] = molecular target: T1, Angiotensin I-converting enzyme (ACE) from rabbit lungs; test: ACE inhibitory activity (HHL substrate, HPLC of hippuric acid); format: biochemical
From the text: Camellia seeds were purchased from Quzhou City, Zhejiang Province. Angiotensin I-converting enzyme (ACE) from rabbit lungs (0.1 U) (Table A1), ACE substrate hippuryl-histidyl-leucine (HHL) and hippuric acid (HA) standards were purchased from Sigma-Aldrich (St. Louis, MO, USA). Neutral protease (50,000 U/g), alkaline protease (200,000 U/g), papain (800,000 U/g), trypsin (250,000 U/g), and Sephadex G-25 were purchased from Beijing Solarbio Science & Technology Co., Ltd. (Beijing, China). All other chemicals used were of analytical grade.
as §1, with “The ACE inhibition rate (%) was calculated based on the following formula:ACE inhibition rate (%) = [(A0 − A1) / A0] × 100%(4) where A0 and A1 equal the HA peak areas of the blank control and sample, respectively.” left out

- Change of ACE inhibitory activity after simulated gastric digestion ([1]; 2% (w/w) pepsin, pH 2.0, 37 °C): decreased significantly
- Change of ACE inhibitory activity after further simulated intestinal digestion ([1]; after pepsin: trypsin 1:50 enzyme to substrate, pH 7.0, 37 °C): did not change significantly
- IC50 ([2]; from regression equation y = 23.595 ln(x) + 98.175): 199 µM
- ACE inhibitory activity ([2]; synthetic peptide 0.5 mg/mL, HHL 2.5 mM, ACE 0.05 U/mL, 37 °C 1 h, HPLC 228 nm, mean, n = 3): 80.46%
SMILES: CC(C)[C@H](N)C(=O)N[C@H](C(=O)N[C@H](C(=O)N1CCC[C@H]1C(=O)N[C@@H](CCC(N)=O)C(=O)N[C@@H](CC(N)=O)C(=O)O)C(C)C)C(C)C [VVVPQN, Val-Val-Val-Pro-Gln-Asn] (H-VVVPQN-OH)
